Among the test systems are SK-MEL-2 melanoma; A549 NSCLC; XF 498 CNS; DMS 114 small cell lung; K-562 leukemia; OVCAR-3 ovarian; KM20L2 colon; 786-0 renal; HOP-92 NSCLC; T-47D breast.
Common to all, as to assay: NCI-60 cell line screen, 48 h

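96-well plates; 48 h exposure; 5 concentrations. Endpoints by linear interpolation between flanking doses. Not reached: highest tested concentration assigned. Abbreviation: GI50, concentration required for 50% inhibition of growth. TGI: concentration producing complete growth inhibition.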 *1 amine or outer side, *2 acyl side, *3 side chain or, on linkers, in order; H or OH if unused. Where a SMILES comes first, the peptide text is derived from it. Bridges are numbered along the chain shown (N, C = ends). [ ]: non-standard residue; d: D form. The star is where a group is joined. Phe(3,5-F2) = N[C@@H](Cc1cc(F)cc(F)c1)C(=O)O; Pro(4R-Me) = C[C@H]1CN[C@H](C(=O)O)C1; aThr = C[C@H](O)[C@H](N)C(=O)O; Pip = O=C(O)[C@@H]1CCCCN1; X10 = Fc1cc(C2CC2)ccc1N*; CO = O=C([*:1])[*:2]

`COC(=O)C1(C(C)C)CCc2c(OC)ccc(OC)c2C1=O` (configuration not stated): the TGI with SK-MEL-2 melanoma, with A549 NSCLC, in the test on XF 498 CNS, in the test with DMS 114 small cell lung, in the test with K-562 leukemia and in the test on OVCAR-3 ovarian was > 100 µM in each case. Also, the TGI in the test with KM20L2 colon and with 786-0 renal was > 100 µM throughout.

Take `CCOC(=O)C(C)(C)Oc1ccc2c(-c3ccccc3)cc(=O)oc2c1`: the TGI was 48.7 µM in the test with SK-MEL-2 melanoma; > 100 µM in the test with A549 NSCLC; 47.9 µM with XF 498 CNS; 64.1 µM in the test with DMS 114 small cell lung; > 100 µM with K-562 leukemia; > 100 µM in the test with OVCAR-3 ovarian. Further, the TGI with KM20L2 colon and in the test on 786-0 renal was > 100 µM throughout.

On to `C[C@@H]1C[C@H]2C(=O)O[C@@H](C)[C@H](NC(=O)[C@H](Cc3cc(F)cc(F)c3)NC(=O)Nc3ccc(C4CC4)cc3F)C(=O)N3CCC[C@H]3C(=O)N3CCCC[C@H]3C(=O)N[C@@H](C)C(=O)N2C1` ({X10-CO}-[Phe(3,5-F2)][aThr]P[Pip]A[Pro(4R-Me)]; ester 2-C), for which the GI50 in the test on SK-MEL-2 melanoma was 0.0549 µM; in the test on HOP-92 NSCLC, 0.0452 µM; in the test with A549 NSCLC it was 0.0507 µM; with T-47D breast, 0.0448 µM; in the test with K-562 leukemia, 0.0346 µM; with OVCAR-3 ovarian, 0.043 µM. The GI50 in the test with 786-0 renal was 0.0817 µM. In addition, the TGI with SK-MEL-2 melanoma was 3.83 µM; with HOP-92 NSCLC it was 4.76 µM; with A549 NSCLC, > 100 µM; in the test with T-47D breast, > 22.1 µM; in the test with K-562 leukemia, > 52.3 µM; in the test with OVCAR-3 ovarian, 3.27 µM. In addition, in the test on 786-0 renal, the TGI was > 38.4 µM.

With `COc1cc(/C=N\NC(=O)CN2CCN(c3cc4c(cc3F)c(=O)c(C(=O)N/N=C/c3cc(OC)c(OC)c(OC)c3)cn4C3CC3)CC2)cc(OC)c1OC`, the GI50 with SK-MEL-2 melanoma is 0.204 µM; with HOP-92 NSCLC it was 0.198 µM; in the test with A549 NSCLC, > 24.6 µM; with T-47D breast, 0.255 µM; with K-562 leukemia it was 0.363 µM; in the test on OVCAR-3 ovarian, 0.214 µM. For the same molecule, in the test on 786-0 renal, the GI50 is 18.7 µM. In addition, the TGI in the test on SK-MEL-2 melanoma was 0.513 µM; in the test on HOP-92 NSCLC, 0.674 µM; in the test with A549 NSCLC it was > 100 µM; in the test with T-47D breast, 0.767 µM; in the test with K-562 leukemia, > 100 µM; in the test with OVCAR-3 ovarian, 0.458 µM. Further, the TGI with 786-0 renal is > 100 µM.

Consider `Cc1nc2sccn2c1-c1csc(Nc2ccccc2Cl)n1`, for which the GI50 with SK-MEL-2 melanoma was 3.83 µM; with HOP-92 NSCLC, 0.798 µM; in the test on A549 NSCLC it was 2.98 µM; in the test on T-47D breast, 2.33 µM; in the test with K-562 leukemia, 0.586 µM; with OVCAR-3 ovarian it was 3.18 µM. For the same molecule, in the test with 786-0 renal, the GI50 was 3.47 µM. The TGI with SK-MEL-2 melanoma is 17.9 µM; in the test on HOP-92 NSCLC, 7.08 µM; with A549 NSCLC, 44.4 µM; in the test on T-47D breast, 66.5 µM; in the test on K-562 leukemia, 17.1 µM; with OVCAR-3 ovarian it was 19.1 µM. The TGI in the test on 786-0 renal is 15.7 µM.

For the molecule `CN(C)C(=S)N=C(Nc1ccccc1)Nc1ccccc1`, the TGI in the test on SK-MEL-2 melanoma, in the test on HOP-92 NSCLC, in the test with A549 NSCLC, in the test with DMS 114 small cell lung, in the test on K-562 leukemia and in the test with OVCAR-3 ovarian was > 100 µM each time. The TGI in the test with KM20L2 colon and in the test with 786-0 renal was > 100 µM each time.

For the molecule `CCC(=O)[C@H](C)[C@@H](OC(=O)[C@H](C)CC)[C@H](C)[C@H]1OC(CC)=C(C)C(=O)[C@@H]1C`, the GI50 in the test with SK-MEL-2 melanoma was 24.6 µM; in the test with HOP-92 NSCLC, 23.1 µM; with A549 NSCLC, 30.9 µM; in the test on T-47D breast it was 18.1 µM; in the test on K-562 leukemia, 39.3 µM; with OVCAR-3 ovarian, 17.4 µM. In addition, the GI50 with 786-0 renal is 25.5 µM. Besides, the TGI was 50.2 µM with SK-MEL-2 melanoma; 62.1 µM in the test with HOP-92 NSCLC; > 100 µM with A549 NSCLC; > 100 µM with T-47D breast; > 100 µM in the test on K-562 leukemia; 36.8 µM with OVCAR-3 ovarian. Further, in the test on 786-0 renal, the TGI stood at 84.2 µM.

With `Cc1cc(N(CCC#N)CCC#N)ccc1N=Nc1ccc(S(N)(=O)=O)cc1`, the TGI in the test with SK-MEL-2 melanoma, with A549 NSCLC, in the test on XF 498 CNS, with DMS 114 small cell lung, in the test on K-562 leukemia and with OVCAR-3 ovarian was > 100 µM each time. Moreover, in the test with 786-0 renal, the TGI is > 100 µM.

Take `Nc1c(C(=O)c2cccc(CCS(N)(=O)=O)c2)cnn1-c1ccc(F)cc1`: the GI50 was > 25 µM in the test with SK-MEL-2 melanoma; > 25 µM in the test on HOP-92 NSCLC; > 25 µM with A549 NSCLC; > 20.6 µM in the test with T-47D breast; > 25 µM with K-562 leukemia; > 25 µM in the test with OVCAR-3 ovarian. The GI50 in the test on 786-0 renal was > 25 µM. Further, the TGI in the test on SK-MEL-2 melanoma, in the test on HOP-92 NSCLC, in the test with A549 NSCLC, in the test with T-47D breast, with K-562 leukemia and with OVCAR-3 ovarian was > 25 µM in each case. For the same molecule, the TGI in the test with 786-0 renal was > 25 µM.

As for `OCC1=CC(NC2CC(CO)C(O)C(O)C2O)C(O)C(O)C1O` (configuration not stated), the TGI with A549 NSCLC, with XF 498 CNS, with DMS 114 small cell lung, in the test on K-562 leukemia, with OVCAR-3 ovarian and in the test with 786-0 renal was > 100 µM throughout.

Turning to `NC(=O)NO.O.O.O.O.O.O.O.O.O.O.O.[Ge].[Ge].[Ge].[Ge].[Ge].[O]=[Ge].[O]=[Ge].[O]=[Ge].[O]=[Ge].[O]=[Ge][OH]`, the TGI in the test on SK-MEL-2 melanoma, in the test with HOP-92 NSCLC, in the test with A549 NSCLC, with XF 498 CNS, with K-562 leukemia and in the test on OVCAR-3 ovarian was > 100 µM each time. Besides, the TGI in the test with KM20L2 colon and with 786-0 renal was > 100 µM throughout.

With `CCOC(=O)Cn1c(C(F)(F)F)nc2nc(Cl)c(Cl)nc21`, the TGI with SK-MEL-2 melanoma is 60.2 µM; in the test with HOP-92 NSCLC, 70.3 µM; in the test on A549 NSCLC it was > 100 µM; with T-47D breast it was > 100 µM; in the test on K-562 leukemia, > 100 µM; in the test on OVCAR-3 ovarian, 54.2 µM. In addition, the TGI with 786-0 renal was > 100 µM.

(Values after PubChem BioAssay (NCI).)
